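Interpolation was linear, between the two tested concentrations surrounding the appropriate level; five concentrations were tested over 48 hours in 96-well plates. GI50: concentration for 50% inhibition of growth.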 Active and inactive are the calls of the source. No stated cut-off is given here; in the data, active = GI50 up to about 1.1 µM and inactive = higher.
Experiments:
Test in all cases: DTP human tumour cell line panel, 48 h
SW-620 = system: SW-620
NCI/ADR-RES = system: NCI/ADR-RES
OVCAR-5 = system: OVCAR-5
SF-295 = system: SF-295
NCI-H23 = system: NCI-H23
HOP-62 = system: HOP-62
HOP-92 = system: HOP-92
CAKI-1 = system: CAKI-1
TK-10 = system: TK-10
DU-145 = system: DU-145
IGROV-1 = system: IGROV-1
PC-3 = system: PC-3
SF-268 = system: SF-268
RXF 393 = system: RXF 393
NCI-H226 = system: NCI-H226
UACC-62 = system: UACC-62
MCF7 = system: MCF7
U-251 = system: U-251
MDA-N = system: MDA-N
SF-539 = system: SF-539

Structure (SMILES): CC(C)(C)c1ccc(CN2CCN(C(c3ccccc3)c3ccc(Cl)cc3)CC2)cc1 (stereo not given)
- GI50 (SW-620): > 100 µM (inactive)
- GI50 (NCI/ADR-RES): > 100 µM (inactive)
- GI50 (OVCAR-5): 60.1 µM (inactive)
- GI50 (SF-295): 37.9 µM (inactive)
- GI50 (NCI-H23): 83.6 µM (inactive)
- GI50 (HOP-62): > 100 µM (inactive)
- GI50 (HOP-92): > 100 µM (inactive)
- GI50 (CAKI-1): > 100 µM (inactive)
- GI50 (TK-10): > 100 µM (inactive)
- GI50 (DU-145): > 100 µM (inactive)
- GI50 (IGROV-1): > 100 µM (inactive)
- GI50 (PC-3): 57.3 µM (inactive)
- GI50 (SF-268): 77.6 µM (inactive)
- GI50 (RXF 393): 24.4 µM (inactive)
- GI50 (NCI-H226): 22.1 µM (inactive)
- GI50 (UACC-62): > 100 µM (inactive)
- GI50 (MCF7): 40.6 µM (inactive)
- GI50 (U-251): 45.1 µM (inactive)
- GI50 (MDA-N): 49.4 µM (inactive)
- GI50 (SF-539): 30.3 µM (inactive)

Structure (SMILES): O=[N+]([O-])/C=C1\COCc2cc3c(cc21)OCO3
- GI50 (SW-620): 22.1 µM (inactive)
- GI50 (NCI/ADR-RES): 18 µM (inactive)
- GI50 (OVCAR-5): 19.9 µM (inactive)
- GI50 (SF-295): 44 µM (inactive)
- GI50 (NCI-H23): 12.1 µM (inactive)
- GI50 (HOP-62): 38.9 µM (inactive)
- GI50 (HOP-92): 30.7 µM (inactive)
- GI50 (CAKI-1): 13 µM (inactive)
- GI50 (TK-10): 22.8 µM (inactive)
- GI50 (DU-145): 19.1 µM (inactive)
- GI50 (IGROV-1): 35.6 µM (inactive)
- GI50 (PC-3): 12.3 µM (inactive)
- GI50 (SF-268): 27.2 µM (inactive)
- GI50 (RXF 393): 17.9 µM (inactive)
- GI50 (NCI-H226): 34 µM (inactive)
- GI50 (UACC-62): 21.1 µM (inactive)
- GI50 (MCF7): 18.5 µM (inactive)
- GI50 (U-251): 18.6 µM (inactive)
- GI50 (MDA-N): 18.9 µM (inactive)
- GI50 (SF-539): 26.4 µM (inactive)

Structure (SMILES): COc1ccc2nc3ccc(OC)cc3c(SCCCl)c2c1
- GI50 (SW-620): 12.6 µM (inactive)
- GI50 (NCI/ADR-RES): 16.3 µM (inactive)
- GI50 (OVCAR-5): 24.8 µM (inactive)
- GI50 (SF-295): 26.2 µM (inactive)
- GI50 (NCI-H23): 16 µM (inactive)
- GI50 (HOP-62): 18.1 µM (inactive)
- GI50 (HOP-92): 21.6 µM (inactive)
- GI50 (CAKI-1): 3.82 µM (inactive)
- GI50 (TK-10): > 81.5 µM (inactive)
- GI50 (DU-145): 21 µM (inactive)
- GI50 (IGROV-1): 5.09 µM (inactive)
- GI50 (PC-3): 22.6 µM (inactive)
- GI50 (SF-268): 12 µM (inactive)
- GI50 (RXF 393): > 20.6 µM (inactive)
- GI50 (NCI-H226): > 48.4 µM (inactive)
- GI50 (UACC-62): 19.5 µM (inactive)
- GI50 (MCF7): 2 µM (inactive)
- GI50 (U-251): 18 µM (inactive)
- GI50 (MDA-N): > 50.6 µM (inactive)
- GI50 (SF-539): 7.21 µM (inactive)

Structure (SMILES): COC1=CC(=O)c2c(c(-c3nc(C)cs3)cn2C)C1=O
- GI50 (SW-620): 3.24 µM (inactive)
- GI50 (NCI/ADR-RES): 4 µM (inactive)
- GI50 (OVCAR-5): 6.76 µM (inactive)
- GI50 (SF-295): 2.88 µM (inactive)
- GI50 (NCI-H23): 2.25 µM (inactive)
- GI50 (HOP-62): 3.05 µM (inactive)
- GI50 (HOP-92): 14.9 µM (inactive)
- GI50 (CAKI-1): 5.97 µM (inactive)
- GI50 (TK-10): 10.8 µM (inactive)
- GI50 (DU-145): 3.76 µM (inactive)
- GI50 (IGROV-1): 4.29 µM (inactive)
- GI50 (PC-3): 5.96 µM (inactive)
- GI50 (SF-268): 6.44 µM (inactive)
- GI50 (RXF 393): 20.4 µM (inactive)
- GI50 (NCI-H226): 16.7 µM (inactive)
- GI50 (UACC-62): 2.99 µM (inactive)
- GI50 (MCF7): 2.62 µM (inactive)
- GI50 (U-251): 4.67 µM (inactive)
- GI50 (MDA-N): 0.931 µM (active)
- GI50 (SF-539): 2.2 µM (inactive)

Structure (SMILES): CC[C@H]1C=CCC[C@@]2(C[C@@H]3CC[C@@H]4[C@H](C(=O)OCCCCCCCCCCCCCCCC(=O)O)[C@]5(CCC[C@@H](C)O5)NC(=[N+]34)N2)O1 [CRAMBESCIDIN 657]
- GI50 (SW-620): 0.189 µM (active)
- GI50 (NCI/ADR-RES): 4.61 µM (inactive)
- GI50 (OVCAR-5): 0.221 µM (active)
- GI50 (SF-295): 0.163 µM (active)
- GI50 (NCI-H23): 0.488 µM (active)
- GI50 (HOP-62): 0.367 µM (active)
- GI50 (HOP-92): 0.153 µM (active)
- GI50 (CAKI-1): 0.182 µM (active)
- GI50 (TK-10): 0.367 µM (active)
- GI50 (DU-145): 0.191 µM (active)
- GI50 (IGROV-1): 0.193 µM (active)
- GI50 (PC-3): 0.1 µM (active)
- GI50 (SF-268): 0.367 µM (active)
- GI50 (RXF 393): 0.216 µM (active)
- GI50 (NCI-H226): 0.273 µM (active)
- GI50 (UACC-62): 0.0927 µM (active)
- GI50 (MCF7): 0.214 µM (active)
- GI50 (U-251): 0.183 µM (active)
- GI50 (MDA-N): 0.189 µM (active)
- GI50 (SF-539): 0.272 µM (active)

From ChEMBL document CHEMBL1201862, “PubChem BioAssay data set” (2004)
